According to ChEMBL document CHEMBL1201862, “PubChem BioAssay data set” (2004):
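Exposure lasted 48 hours, with cells grown in 96-well plates and compounds tested at five concentrations. GI50: concentration for 50% inhibition of growth.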 The source made the active and inactive calls. Rule as the data show it: active = GI50 up to about 1.1 µM and inactive = higher.

Key:
Experiment in all cases: growth of human tumour cells (NCI), 48 h
[1] = system: 786-0
[2] = system: A549
[3] = system: ACHN
[4] = system: COLO 205
[5] = system: HCC 2998
[6] = system: Hs-578T
[7] = system: IGROV-1
[8] = system: K562
[9] = system: M14
[10] = system: MDA-MB-231
[11] = system: MOLT-4
[12] = system: NCI-H226
[13] = system: NCI/ADR-RES
[14] = system: OVCAR-5
[15] = system: SF-268
[16] = system: SK-MEL-28
[17] = system: SN12C
[18] = system: SNB-75
[19] = system: SW-620
[20] = system: UO-31

Structure (SMILES) | GI50 [1] | GI50 [2] | GI50 [3] | GI50 [4] | GI50 [5] | GI50 [6] | GI50 [7] | GI50 [8] | GI50 [9] | GI50 [10] | GI50 [11] | GI50 [12] | GI50 [13] | GI50 [14] | GI50 [15] | GI50 [16] | GI50 [17] | GI50 [18] | GI50 [19] | GI50 [20]
CCNCCCCNCCCCNCCCCNCCCCNCC | 34.8 µM (inactive) | 20.7 µM (inactive) | > 89.9 µM (inactive) | 43.8 µM (inactive) | > 100 µM (inactive) | 2.84 µM (inactive) | 41.9 µM (inactive) | 57 µM (inactive) | > 100 µM (inactive) | > 100 µM (inactive) | > 79.6 µM (inactive) | > 100 µM (inactive) | > 100 µM (inactive) | 52.5 µM (inactive) | 48.8 µM (inactive) | 9.14 µM (inactive) | > 95.1 µM (inactive) | 16.7 µM (inactive) | > 100 µM (inactive) | 53.6 µM (inactive)
CC(C)=CCC[C@@H](C)C1=C(Nc2ccccc2)C(=O)C(C)=C(O)C1=O | 4.75 µM (inactive) | 2.56 µM (inactive) | 2.56 µM (inactive) | 2.74 µM (inactive) | 5.92 µM (inactive) | 2.34 µM (inactive) | 3.01 µM (inactive) | 2.92 µM (inactive) | 3.13 µM (inactive) | 2.89 µM (inactive) | 0.719 µM (active) | 3.13 µM (inactive) | 0.815 µM (active) | 8.95 µM (inactive) | 1.73 µM (inactive) | 8.02 µM (inactive) | 4.19 µM (inactive) | 3.11 µM (inactive) | 3.78 µM (inactive) | 3.77 µM (inactive)
COc1ccc(N2C(=O)C3c4[nH]c5ccc([N+](=O)[O-])cc5c4C4CCC(C(C)(C)C)CC4C3C2=O)cc1 (stereo not given) | 11.4 µM (inactive) | 6.28 µM (inactive) | 9.75 µM (inactive) | 4.82 µM (inactive) | 10.9 µM (inactive) | 25.4 µM (inactive) | 7.66 µM (inactive) | 2.52 µM (inactive) | 14.8 µM (inactive) | 5.18 µM (inactive) | 14.3 µM (inactive) | 28 µM (inactive) | 9.62 µM (inactive) | 18.5 µM (inactive) | 10.1 µM (inactive) | 61.7 µM (inactive) | 15.2 µM (inactive) | 7.28 µM (inactive) | 37.1 µM (inactive) | 16.3 µM (inactive)
O=C(NC(Nc1ccc(F)cc1)(C(F)(F)F)C(F)(F)F)C(C(F)(F)F)C(F)(F)F | > 54.1 µM (inactive) | 5.53 µM (inactive) | 1.71 µM (inactive) | 6.65 µM (inactive) | 12 µM (inactive) | 20.4 µM (inactive) | 7.62 µM (inactive) | 0.401 µM (active) | 0.402 µM (active) | 52 µM (inactive) | 4.86 µM (inactive) | 50.5 µM (inactive) | 4.46 µM (inactive) | > 96.6 µM (inactive) | 49.8 µM (inactive) | 17.5 µM (inactive) | 50.2 µM (inactive) | 36.5 µM (inactive) | 1.65 µM (inactive) | 2.39 µM (inactive)
CN(CCc1ccc(Br)cc1)CCN1CCCCC1 | 30.1 µM (inactive) | 43.4 µM (inactive) | 62.5 µM (inactive) | 16.3 µM (inactive) | 33.7 µM (inactive) | 19.7 µM (inactive) | 36.4 µM (inactive) | 15.1 µM (inactive) | 22.8 µM (inactive) | 17.3 µM (inactive) | 31 µM (inactive) | 33.4 µM (inactive) | 46.5 µM (inactive) | 41 µM (inactive) | 65.3 µM (inactive) | 20.4 µM (inactive) | 81.1 µM (inactive) | 22.3 µM (inactive) | 33.5 µM (inactive) | 36.1 µM (inactive)
C=CC1(c2ccc(OC)cc2)OCCCO1 | > 100 µM (inactive) | > 100 µM (inactive) | > 100 µM (inactive) | > 100 µM (inactive) | > 100 µM (inactive) | > 100 µM (inactive) | > 100 µM (inactive) | > 100 µM (inactive) | > 100 µM (inactive) | > 100 µM (inactive) | > 100 µM (inactive) | > 100 µM (inactive) | > 100 µM (inactive) | > 100 µM (inactive) | > 100 µM (inactive) | > 100 µM (inactive) | > 100 µM (inactive) | > 100 µM (inactive) | > 100 µM (inactive) | > 100 µM (inactive)
COc1cc(-c2nc(SC)nc3c2CCc2ccccc2-3)cc(OC)c1OC | 50.6 µM (inactive) | > 100 µM (inactive) | > 100 µM (inactive) | 53.5 µM (inactive) | > 100 µM (inactive) | > 100 µM (inactive) | 65.3 µM (inactive) | 22.3 µM (inactive) | > 100 µM (inactive) | 28.3 µM (inactive) | 30.5 µM (inactive) | > 10 µM (inactive) | 36.3 µM (inactive) | > 100 µM (inactive) | 91.2 µM (inactive) | > 100 µM (inactive) | > 100 µM (inactive) | > 100 µM (inactive) | > 100 µM (inactive) | 46.3 µM (inactive)
CC(=O)OCC1OC(OC2CC3C(C)(C)C(=O)CC[C@]3(C)C3CC[C@]45C[C@]4(CCC5[C@@H](C)CC(O)C(O)C(C)(C)O)[C@]23C)C(O)C(O)C1O (stereo not given in full) | 13.6 µM (inactive) | 17.3 µM (inactive) | 16.4 µM (inactive) | 5.85 µM (inactive) | 10 µM (inactive) | 10.4 µM (inactive) | 11.1 µM (inactive) | 5.52 µM (inactive) | 10.3 µM (inactive) | 6.44 µM (inactive) | 3.71 µM (inactive) | 16.5 µM (inactive) | 18.3 µM (inactive) | 16.7 µM (inactive) | 10.1 µM (inactive) | 3.24 µM (inactive) | 13.4 µM (inactive) | 5.35 µM (inactive) | 13.2 µM (inactive) | 18.2 µM (inactive)
CCCCCCCCCCCCCCCCCc1cccc(OCOCCOC)c1C(=O)O | 18.6 µM (inactive) | 18.7 µM (inactive) | 19.1 µM (inactive) | 20.6 µM (inactive) | 19.1 µM (inactive) | 18.6 µM (inactive) | 16.9 µM (inactive) | 30.5 µM (inactive) | 16.5 µM (inactive) | 19.7 µM (inactive) | 21.5 µM (inactive) | 17 µM (inactive) | 14.5 µM (inactive) | 16.8 µM (inactive) | 17.2 µM (inactive) | 20.1 µM (inactive) | 22.4 µM (inactive) | 15.5 µM (inactive) | 20.3 µM (inactive) | 17 µM (inactive)
C=CCC1(OC(C)=O)C2OC(=O)C1(O)OCC2O (stereo not given) | > 100 µM (inactive) | > 100 µM (inactive) | > 100 µM (inactive) | > 100 µM (inactive) | > 100 µM (inactive) | > 100 µM (inactive) | > 100 µM (inactive) | > 100 µM (inactive) | > 100 µM (inactive) | > 100 µM (inactive) | > 100 µM (inactive) | > 100 µM (inactive) | > 100 µM (inactive) | > 100 µM (inactive) | > 100 µM (inactive) | > 100 µM (inactive) | > 100 µM (inactive) | > 39.9 µM (inactive) | > 100 µM (inactive) | > 100 µM (inactive)
